# From patent US8859541B2, “6-alkynylpyridines” (Boehringer Ingelheim International GmbH, priority 2012, dated 2014)
# pIC50: −log10 of the molar value.
# Target: T1, XIAP BIR3 (Homo sapiens, UniProt P98170)
# T1 construct: covering amino acids 241 to 356; XIAP BIR3; made in house; host or cells: E. coli
# Assay: XIAP BIR3 binding assay (DELFIA), displacement of SMAC peptide
# Conditions: GST-fusion BIR3 domain (aa 241 to 356) 10 nM, SMAC peptide 10 nM; activity of the (S)-isomers
# Description: Biological Methods XIAP BIR3 and cIAP1 BIR3 Binding Assays (DELFIA)
# Peptide […]-Lys(Biotin), representing the N-terminus of mature human SMAC (SMAC peptide), was used as interaction partner in the protein-peptide interaction assay.
# BIR3 domains (10 nM) were incubated with SMAC peptide (10 nM) in Assay Buffer (50 mM Tris, 120 mM NaCl, 0.1% BSA, 1 mM DTT, 0.05% TritonX100) for one hour at room temperature in the presence of inhibitiory compounds. The assay mixture was transferred to a strepatvidin coated plate and incubated for one hour at room temperature to allow binding of the biotinylated peptide and associated BIR3 domains to the plate. After several washing steps Eu labeled anti-GST antibody (e.g. Perkin Elmer DELFIA Eu-N1-antiGST AD0250) was added to detect BIR3 domain-SMAC peptide interactions according to Perkin Elmer's instructions. […] Time resolved Europium fluoresecence was measured in a Wallac Victor using Standard assay settings.
# DELFIA assay results were plotted against compound concentrations and Software GraphPad Prizm was used to calculate half maximal inhibitory concentrations (IC50 values).
# T1 sequence (P98170 241-356): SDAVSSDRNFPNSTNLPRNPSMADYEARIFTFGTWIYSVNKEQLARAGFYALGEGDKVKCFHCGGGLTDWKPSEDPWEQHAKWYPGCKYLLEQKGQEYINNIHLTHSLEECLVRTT
row,SMILES,pIC50
1,"CNC(C)C(=O)Nc1ccc(-c2cncnc2)c(C#Cc2ccc3[nH]cnc3c2)n1 (stereo not drawn) [Example 10, N-[6-[2-(1H-benzimidazol-5-yl)ethynyl]-5-pyrimidin-5-ylpyridin-2-yl]-2-(methyl-amino)propanamide]",6.10
2,"CNC(C)C(=O)Nc1ccc(-c2cccc(C(F)(F)F)c2OC)c(C#Cc2ccccc2)n1 (stereo not drawn) [Example 140, N-[5-[2-methoxy-3-(trifluoromethyl)phenyl]-6-(2-phenylethynyl)pyridin-2-yl]-2-(methylamino)propanamide]",5.70
3,"CNC(C)C(=O)Nc1ccc(-c2ccc3c(c2)C(=O)CCC3)c(C#Cc2ccccc2)n1 (stereo not drawn) [Example 178, 2-(methylamino)-N-[5-(8-oxo-6,7-dihydro-5H-naphthalen-2-yl)-6-(2-phenylethynyl)pyridin-2-yl]-propanamide]",6.67
4,"CC(N)C(=O)Nc1cccc(C#Cc2cc(F)cc(F)c2)n1 (stereo not drawn) [Example 233, 2-amino-N-[6-[2-(3,5-difluorophenyl)ethynyl]pyridin-2-yl]propanamide]",5.54
5,"CCCNC(C)C(=O)Nc1ccc(-c2c(C)noc2C)c(C#Cc2ccccc2)n1 (stereo not drawn) [Example 172, N-[5-(3,5-dimethyl-1,2-oxazol-4-yl)-6-(2-phenylethynyl)-pyridin-2-yl]-2-(propylamino)-propanamide]",6.30
6,"CNC(C)C(=O)Nc1ccc(-c2cccc3ncccc23)c(C#Cc2ccc(C)cc2)n1 (stereo not drawn) [Example 143, 2-(methylamino)-N-[6-[2-(4-methylphenyl)ethynyl]-5-quinolin-5-ylpyridin-2-yl]propan-amide]",6.41
7,"CNC(C)C(=O)Nc1ccc(-c2cnc(N3CCCC3)nc2)c(C#Cc2ccc3ccccc3c2)n1 (stereo not drawn) [Example 155, 2-(methylamino)-N-[6-(2-naphthalen-2-ylethynyl)-5-(2-pyrrolidin-1-ylpyrimidin-5-yl)-pyridin-2-yl]propanamide]",6.55
8,"CNC(C)C(=O)Nc1cc(C(F)(F)F)c(-c2cncnc2)c(C#Cc2ccccc2)n1 (stereo not drawn) [Example 201, 2-(methylamino)-N-[6-(2-phenylethynyl)-5-pyrimidin-5-yl-4-(trifluoromethyl)pyridin-2-yl]propanamide]",4.97
9,"CC(N)C(=O)Nc1ccc(-c2cccc(F)c2)c(C#Cc2ccccc2)n1 (stereo not drawn) [Example 114, 2-amino-N-[5-(3-fluorophenyl)-6-(2-phenylethynyl)pyridin-2-yl]-propanamide]",5.79
10,"CNC(C)C(=O)Nc1ccc(-c2cncnc2)c(C#Cc2cc(F)cc(Cl)c2)n1 (stereo not drawn) [Example 17, N-[6-[2-(3-chloro-5-fluorophenyl)ethynyl]-5-pyrimidin-5-ylpyridin-2-yl]-2-(methylamino)propanamide]",6.91
11,"CC(N)C(=O)Nc1cccc(C#Cc2nccs2)n1 (stereo not drawn) [Example 237, 2-amino-N-[6-[2-(1,3-thiazol-2-yl)ethynyl]pyridin-2-yl]propanainide]",5.23
12,"CNC(C)C(=O)Nc1ccc(-c2cnccc2C#N)c(C#Cc2ccc(C)cc2)n1 (stereo not drawn) [Example 148, N-[5-(4-cyanopyridin-3-yl)-6-[2-(4-methylphenyl)ethynyl]pyridin-2-yl]-2-(methylamino)propan-amide]",6.38
13,"CC(N)C(=O)Nc1cccc(C#Cc2ccc(F)c(F)c2)n1 (stereo not drawn) [Example 212, 2-amino-N-[6-[2-(3,4-difluorophenyl)ethynyl]pyridin-2-yl]propanamide]",5.51
14,"CNC(C)C(=O)Nc1ccc(-c2c(C)nc3cnccn23)c(C#Cc2ccc3ncccc3c2)n1 (stereo not drawn) [Example 68, 2-(methylamino)-N-[5-(2-methylimidazo[1,2-a]pyrazin-3-yl)-6-(2-quinolin-6-ylethynyl)-pyridin-2-yl]propanamide]",6.78
15,"CC(N)C(=O)Nc1cccc(C#CC2=CCCCC2)n1 (stereo not drawn) [Example 225, 2-amino-N-[6-[2-(cyclohexen-1-yl)ethynyl]pyridin-2-yl]propanamide]",5.15
16,"CC(N)C(=O)Nc1ccc(-c2cc(F)cc(C(F)(F)F)c2)c(C#Cc2ccccc2)n1 (stereo not drawn) [Example 115, 2-amino-N-[5-[3-fluoro-5-(trifluoromethyl)phenyl]-6-(2-phenylethynyl)pyridin-2-yl]-propanamide]",5.69
17,"CNC(C)C(=O)Nc1ccc(-c2c(C)noc2C)c(C#Cc2ccc3cnccc3c2)n1 (stereo not drawn) [Example 97, N-[5-(3,5-dimethyl-1,2-oxazol-4-yl)-6-(2-isoquinolin-6-ylethynyl)pyridin-2-yl]-2-(methylamino)propanamide]",6.19
18,"CCc1ccccc1-c1ccc(NC(=O)C(C)NC)nc1C#Cc1ccccc1 (stereo not drawn) [Example 124, N-[5-(2-ethylphenyl)-6-(2-phenyl-ethynyl)pyridin-2-yl]-2-(methyl-amino)propanamide]",5.55

row,SMILES,pIC50
1,"CC(N)C(=O)Nc1ccc(-c2ccccc2)c(C#Cc2ccccc2)n1 (stereo not drawn) [Example 107, 2-amino-N-[5-phenyl-6-(2-phenylethynyl)pyridin-2-yl]-propanamide]",5.99
2,"CC(N)C(=O)Nc1cccc(C#Cc2ccc3ccccc3c2)n1 (stereo not drawn) [Example 242, 2-amino-N-[6-(2-naphthalen-2-ylethynyl)pyridin-2-yl]propanamide]",5.37
3,"CC(N)C(=O)Nc1cccc(C#Cc2ccc(Cl)cc2)n1 (stereo not drawn) [Example 211, 2-amino-N-[6-[2-(4-chlorophenyl)ethynyl]pyridin-2-yl]propanamide]",5.70
4,"CC(N)C(=O)Nc1ccc(-c2ccccc2C#N)c(C#Cc2ccccc2)n1 (stereo not drawn) [Example 109, 2-amino-N-[5-(2-cyanophenyl)-6-(2-phenylethynyl)pyridin-2-yl]-propanamide]",6.19
5,"CNC(C)C(=O)Nc1ccc(-c2cnc(SC)nc2C#N)c(C#Cc2ccc3cnccc3c2)n1 (stereo not drawn) [Example 59, N-[5-(4-cyano-2-methylsulfanylpyrimidin-5-yl)-6-(2-isoquinolin-6-ylethynyl)-pyridin-2-yl]-2-(methylamino)-propanamide]",6.04
6,"CNC(C)C(=O)Nc1ccc(-c2c(C)cncc2C)c(C#Cc2ccc3ncccc3c2)n1 (stereo not drawn) [Example 1, N-[5-(3,5-dimethylpyridin-4-yl)-6-(2-quinolin-6-ylethynyl)pyridin-2-yl]-2-(methylamino)propanamide]",6.54
7,"CNC(C)C(=O)Nc1ccc(-c2ccc(C(N)=O)nc2)c(C#Cc2ccccc2)n1 (stereo not drawn) [Example 183, 5-[6-[[2-(methylamino)-propanoyl]amino]-2-(2-phenyl-ethynyl)pyridin-3-yl]pyridine-2-carboxamide]",6.84
8,"CNC(C)C(=O)Nc1ccc(-c2c(C)nc3ccccn23)c(C#Cc2ccc(-c3ccncn3)cc2)n1 (stereo not drawn) [Example 55, 2-(methylamino)-N-[5-(2-methylimidazo[1,2-a]pyridin-3-yl)-6-[2-(4-pyrimidin-4-ylphenyl)ethynyl]pyridin-2-yl]-propanamide]",6.51
9,"CNc1ncc(-c2ccc(NC(=O)C(C)NC)nc2C#Cc2ccc3ccccc3c2)cn1 (stereo not drawn) [Example 157, 2-(methylamino)-N-[5-[2-(methylamino)pyrimidin-5-yl]-6-(2-naphthalen-2-ylethynyl)-pyridin-2-yl]propanamide]",6.56
10,"CNC(C)C(=O)Nc1ccc(-c2c(OC)ccc3ccccc23)c(C#Cc2ccccc2)n1 (stereo not drawn) [Example 163, N-[5-(2-methoxynaphthalen-1-yl)-6-(2-phenylethynyl)pyridin-2-yl]-2-(methylamino)propanamide]",5.35
11,"CNC(C)C(=O)Nc1ccc(-c2c(C)nc(N3CCOCC3)nc2C)c(C#Cc2ccc3cnccc3c2)n1 (stereo not drawn) [Example 83, N-[5-(4,6-dimethyl-2-morpholin-4-ylpyrimidin-5-yl)-6-(2-isoquinolin-6-ylethynyl)-pyridin-2-yl]-2-(methylamino)-propanamide]",6.35
12,"CNC(C)C(=O)Nc1ccc(-c2cncnc2)c(C#Cc2ccc3c(c2)OCCO3)n1 (stereo not drawn) [Example 14, N-[6-[2-(2,3-dihydro-1,4-benzodioxin-6-yl)ethynyl]-5-pyrimidin-5-ylpyridin-2-yl]-2-(methylamino)propanamide]",6.38
13,"CNC(C)C(=O)Nc1ccc(-c2sc(-c3ccccc3)nc2C)c(C#Cc2ccccc2)n1 (stereo not drawn) [Example 136, 2-(methylamino)-N-[5-(4-methyl-2-phenyl-1,3-thiazol-5-yl)-6-(2-phenylethynyl)pyridin-2-yl]-propanamide]",5.98
14,"CC(N)C(=O)Nc1ccc(-c2cncnc2)c(C#Cc2ccccc2)n1 (stereo not drawn) [Example 105, 2-amino-N-[6-(2-phenylethynyl)-5-pyrimidin-5-ylpyridin-2-yl]-propanamide]",6.66
15,"CNC(C)C(=O)Nc1ccc(-c2c(C)nc3ccccn23)c(C#Cc2ccc(C#N)c(C)c2)n1 (stereo not drawn) [Example 38, N-[6-[2-(4-cyano-3-methyl-phenyl)ethynyl]-5-(2-methyl-imidazo[1,2-a]pyridin-3-yl)-pyridin-2-yl]-2-(methylamino)-propanamide]",6.85
16,"CNC(C)C(=O)Nc1ccc(-c2c[nH]nc2C(=O)OC)c(C#Cc2ccccc2)n1 (stereo not drawn) [Example 193, methyl 4-[6-[[2-(methylamino)-propanoyl]amino]-2-(2-phenyl-ethynyl)pyridin-3-yl]-1H-pyrazole-3-carboxylate]",6.85
17,"CNC(C)C(=O)Nc1ccc(Cc2ccccc2)c(C#Cc2ccccc2)n1 (stereo not drawn) [Example 119, N-[5-benzyl-6-(2-phenylethynyl)pyridin-2-yl]-2-(methylamino)-propan-amide]",6.49
18,"CC(N)C(=O)Nc1ccc(-c2cc(F)cc(F)c2)c(C#Cc2ccccc2)n1 (stereo not drawn) [Example 111, 2-amino-N-[5-(3,5-difluorophenyl)-6-(2-phenyl-ethynyl)pyridin-2-yl]propanamide]",5.81
